{"source": "patent US9132131B2", "about": "“Use of adenosine A3 receptor agonists for treatment of neuropathic pain” (Saint Louis University, priority 2011, dated 2015)", "key": {"[1]": {"tested_on": "CCI of the sciatic nerve (mechano-allodynia)", "assay": "CCI model of neuropathic pain, mechano-allodynia (von Frey PWT)", "format": "in vivo, mice", "description": "CCI model of neuropathic pain. CCI to the sciatic nerve of the left hind leg in mice was performed under general anaesthesia using the well-characterized Bennett model. Briefly, mice (weighing 25-30 g at the time of surgery) were anesthetized with 3% isoflurane/100% O2 inhalation and maintained on 2% isoflurane/100% O2 for the duration of surgery. The left thigh was shaved, scrubbed with Nolvasan® and a small incision (1-1.5 cm in length) was made in the middle of the lateral aspect of the left thigh to expose the sciatic nerve. The nerve was loosely ligated around the entire diameter of the nerve at three distinct sites (spaced 1 mm apart) using silk sutures (6.0). The surgical site was closed with a single muscle suture and a skin clip. Pilot studies established that under our experimental conditions peak mechano-allodynia develops by day 5-day 7 (D5-D7) following CCI. Test substances or their vehicles were given subcutaneously (s.c.), intraperitoneally (i.p.) or orally by gavage (0.1 ml) at peak mechano-allodynia (D7).\nBehavioral testing. […] The plantar aspect of hindpaws were probed three times with calibrated von Frey filaments (Stoelting, mice: 0.07-2.00 grams; rats: 0.407-26 grams) according to the “up-and-down” method. […] Briefly, each rat was placed in a Plexiglas chamber (28×40×35-cm, wire mesh floor) and after its acclimation, a servo-controlled mechanical stimulus was applied to the plantar surface that exerted a progressively increasing punctate pressure up to 50 grams within 10 seconds. Mechanical threshold was assessed three times at each time point to yield a mean value, reported as PWT (grams). […] Mechano-hyperalgesia was assessed in rats by the Randall and Sellitto paw pressure test using an analgesiometer (Ugo Basile). The nociceptive threshold was defined as the force (grams) at which the rat withdrew its paw (cut off set at 250 grams).\nDetermining ED50 values. Dose response data were curve-fitted using the least sum of square method by a normalized 4-parameter, variable slope non-linear analysis of the % Reversal of Mechano-allodynia in CCI and % Prevention of Mechano-allodynia or Mechano-hyperalgesia in CIPN using GraphPad Prism (Release 5.03, GraphPad Software, Inc.) from which the ED50 was determined and reported with the 95% confidence interval (95% CI). In the CCI model, the % Reversal of Mechano-allodynia=(PWT1h−PWTD7)/(PWTD0−PWTD7)×100, where PWTD0=Paw Withdrawal Threshold (g) at D0, PWT1h=Paw Withdrawal Threshold (g) at 1 hour after the administration of IB-MECA, gabapentin, amitriptyline, or combinations of IB-MECA with gabapentin or amitriptyline, and PWTD7=Paw Withdrawal Threshold (grams) at D7 prior to drug administration.\nStatistical Analysis. Data are expressed as mean±SD for n animals. Behavioral data were analyzed by two-way repeated measures ANOVA with Bonferroni comparisons (full time course studies) or one-way ANOVA Dunnett's comparisons (1 hour behavioral data). The dose response curves were compared to a globally fitted curve using the extra sum-of-squares F-test comparisons to determine whether the data represented distinct curves between treatments. Significant differences were defined at a P<0.05. All statistical analysis was performed using GraphPad Prism (v5.03, GraphPad Software, Inc.)."}, "[2]": {"tested_on": "acute nociception (tail flick latency)", "assay": "Tail flick assay for acute nociception", "format": "in vivo, mice", "conditions": "IB-MECA, MRS1898 0.5 μmol/kg i.p. at 30, 60, 120 minutes; morphine 35 μmol/kg s.c. positive control", "description": "Tail flick and hot plate assay in mice for acute nociception. The tail flick test, which measures latency(s) of tail withdrawal from a noxious radiant heat source (Ugo Basile; model number 37360) was used to measure thermal nociceptive sensitivity in mice with baseline latencies of 3-5 seconds and a cut-off time of 15 seconds to prevent tissue injury. Tail flick latencies were taken before and at 30, 60 and 120 minutes after i.p. injection of IB-MECA, MRS1898 (0.5 μmol/kg) or its vehicle (0.1% DMSO in saline). For the hot plate test, nociceptive thresholds were determined as previously reported by our group by measuring latencies (in seconds) of mice placed in a transparent glass cylinder on a hot plate maintained at 52° C.. Responses indicative of nociception included intermittent lifting and/or licking of the hindpaws or escape behavior. Hot plate latencies were taken in mice from all groups before and after drug administration. A cut-off latency of 15 seconds was employed to prevent tissue damage."}, "[3]": {"tested_on": "bortezomib-induced neuropathic pain", "assay": "Bortezomib-induced neuropathic pain (mechano-allodynia, mechano-hyperalgesia)", "format": "in vivo, rats", "description": "Bortezomib or vehicle (5% Tween 80, 5% ethanol) was injected i.p. in rats on five consecutive days (D0-D4; 0.2 mg/kg) for a final cumulative dose of 1 mg/kg (G. J. Bennett and W. H. Xiao, personal communication). Test substances or their vehicle were given i.p. (0.2 ml) 30 min before the chemotherapeutic agent or its vehicle on D0 (baseline) and then daily until D15 or D17. Behavioral responses (mechano-allodynia and mechano-hyperalgesia) were measured on D0 prior to the first i.p. injection of the chemotherapeutic agent and subsequently at various time points. If testing coincided with a day when rats received test substance, behavioral measurements were taken always before the injection of the test substance. Chemotherapeutic treatments result in bilateral allodynia and hyperalgesia without differences in left and right paw withdrawal threshold (PWT, grams) in any group at any time point, thus values from both paws were averaged.\nBehavioral testing. […] The plantar aspect of hindpaws were probed three times with calibrated von Frey filaments (Stoelting, mice: 0.07-2.00 grams; rats: 0.407-26 grams) according to the “up-and-down” method. […] Mechanical threshold was assessed three times at each time point to yield a mean value, reported as PWT (grams). […] Mechano-hyperalgesia was assessed in rats by the Randall and Sellitto paw pressure test using an analgesiometer (Ugo Basile). […]"}}, "data": [{"smiles": "CNC(=O)[C@H]1O[C@@H](n2cnc3c(NCc4cccc(I)c4)ncnc32)[C@H](O)[C@@H]1O", "note": "[IB-MECA, N^6-(3-iodobenzyl)-adenosine-5′-N-methyluronamide]", "values": [{"measurement": "anti-allodynic effect of low dose alone", "setting": "[1]; 0.2 μmol/kg", "result": "devoid of anti-allodynic effects"}, {"measurement": "reversal of mechano-allodynia on consecutive daily injections", "setting": "[1]; 0.5 μmol/kg i.p. daily D8-D15, compared to D7", "result": "reversed mechano-allodynia to the same degree as observed on D7"}, {"measurement": "effect on PWT in contralateral paws", "setting": "[1]; D7 after CCI, drug alone", "result": "lacked effect"}, {"measurement": "time of maximal reversal of mechano-allodynia", "setting": "[1]; after single administration on D7", "result": "≤ 1", "unit": "h"}, {"measurement": "onset of reversal of allodynia", "setting": "[1]; i.p. on D7", "result": 30, "unit": "min"}, {"measurement": "Emax, reversal of mechano-allodynia", "setting": "[1]; mice, D7 after CCI, drug alone", "result": 100, "unit": "%"}, {"measurement": "ED50, reversal of mechano-allodynia", "setting": "[1]; mice, D7 after CCI, ipsilateral paw, at time of maximal reversal, drug alone (IB-MECA i.p., morphine s.c., gabapentin i.p., amitriptyline oral)", "result": 0.4, "unit": "µmol/kg"}, {"measurement": "reversal of mechano-allodynia in ipsilateral paws", "setting": "[1]; single dose D7, IB-MECA 0.2-2, CI-IB-MECA 0.6, MRS1898 0.5 μmol/kg i.p., morphine 0.11-35 s.c., gabapentin 18-584 i.p., amitriptyline 3-191 μmol/kg oral", "result": "reversed allodynia"}, {"measurement": "effect on tail flick latency", "setting": "[2]", "result": "lacked effect"}, {"measurement": "effect on development of bortezomib-induced mechano-allodynia and mechano-hyperalgesia", "setting": "[3]; 0.2 μmol/kg/d (not shown)", "result": "blocked the development"}, {"measurement": "neuropathic pain after treatment was discontinued on D17", "setting": "[3]; bortezomib model", "result": "did not emerge"}]}]}
